Read-outs that look alike come from different tables or passages of the source.
What was measured:
H292 cells [1] = experiment: Combination with paclitaxel, CellTiter-Glo viability, Fa and CalcuSyn CI; format: cell-based; settings: 6 days;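 note: fa derived from raw luminescence, CI computed in CalcuSyn from drug concentrations and Fa, with CI under 0.9 indicating synergism and 0.9 to 1.1 nearly additive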
Procedure: (§1) Cell viability was measured by the CellTiter-Glo Luminescence assay. Raw luminescent values were converted to fraction affected (Fa) with the following equation:
(§2) Synergy analysis was performed using the CalcuSyn software to determine CI scores based on the drug concentrations used and corresponding Fa values.

A549 cells [2] = experiment: as above; format: cell-based; settings: 6 days
Procedure: as §1, §2

MIAPACA2T2 cells [3] = experiment: Combination with gemcitabine, CellTiter-Glo viability, Fa and CalcuSyn CI; format: cell-based; settings: 6 days
Procedure: as §1, §2

MIAPACA2T2 cells [4] = experiment: Combination with carboplatin, CellTiter-Glo viability, Fa and CalcuSyn CI; format: cell-based; settings: 6 days
Procedure: as §1, §2

MIAPACA2T2 cells [5] = experiment: Combination with irinotecan, CellTiter-Glo viability, Fa and CalcuSyn CI; format: cell-based; settings: 6 days
Procedure: as §1, §2

PSN1 cells [6] = experiment: as above; format: cell-based; settings: 6 days
Procedure: as §1, §2

H292 NSCLC xenografts = experiment: H292 NSCLC xenografts, combination with chemotherapy; format: in vivo, mice; settings: 100 mg/kg orally once daily + paclitaxel 20 mg/kg IP
PSN1 cells [7] = settings: 6 days
Procedure: as §1, §2

H292 cells [8] = experiment: Combination with pemetrexed, CellTiter-Glo viability, Fa and CalcuSyn CI; settings: 6 days;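 note: fa derived from CellTiter-Glo luminescence signal, CI calculated in CalcuSyn from doses and Fa, with 0.9–1.1 nearly additive and smaller values indicating synergism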
Procedure: as §1, §2

A549 cells [9] = experiment: as above; settings: 6 days
Procedure: as §1, §2

[10] = Compound G 0.437382 μM fixed + Paclitaxel 0.0005 μM
[11] = Compound G 0.437382 μM fixed + Paclitaxel 0.0007 μM
[12] = Compound G 0.437382 μM fixed + Paclitaxel 0.0009 μM
[13] = Compound G 0.437382 μM fixed + Paclitaxel 0.0011 μM
[14] = Compound G 0.437382 μM fixed + Paclitaxel 0.0015 μM
[15] = Compound G 0.437382 μM fixed + Paclitaxel 0.0019 μM
[16] = Compound G 0.437382 μM fixed + Paclitaxel 0.0025 μM
[17] = Compound G 0.831 μM fixed + Gemcitabine 0.001322 μM
[18] = Compound G 0.831 μM fixed + Gemcitabine 0.001784 μM
[19] = Compound G 0.831 μM fixed + Gemcitabine 0.002409 μM
[20] = Compound G 0.831 μM fixed + Gemcitabine 0.003252 μM
[21] = Compound G 0.831 μM fixed + Gemcitabine 0.00439 μM
[22] = Compound G 0.831 μM fixed + Gemcitabine 0.005926 μM
[23] = Compound G 0.831 μM fixed + Gemcitabine 0.008 μM
[24] = Compound G 0.831 μM fixed + Carboplatin 2.47793 μM
[25] = Compound G 0.831 μM fixed + Carboplatin 3.3452 μM
[26] = Compound G 0.831 μM fixed + Carboplatin 4.51602 μM
[27] = Compound G 0.831 μM fixed + Carboplatin 6.09663 μM
[28] = Compound G 0.831 μM fixed + Carboplatin 8.23045 μM
[29] = Compound G 0.831 μM fixed + Carboplatin 11.1111 μM
[30] = Compound G 0.831 μM fixed + Carboplatin 15 μM
[31] = Compound G 0.83102 μM fixed + Irinotecan 0.131072 μM
[32] = Compound G 0.83102 μM fixed + Irinotecan 0.16384 μM
[33] = Compound G 0.83102 μM fixed + Irinotecan 0.2048 μM
[34] = Compound G 0.83102 μM fixed + Irinotecan 0.256 μM
[35] = Compound G 0.83102 μM fixed + Irinotecan 0.4 μM
[36] = Compound G 0.83102 μM fixed + Irinotecan 0.5 μM
[37] = Compound G 0.83102 μM fixed + Irinotecan […]
[38] = Compound G 0.0213 μM fixed + Irinotecan 0.035117 μM
[39] = Compound G 0.0213 μM fixed + Irinotecan 0.052675 μM
[40] = Compound G 0.0213 μM fixed + Irinotecan 0.079012 μM
[41] = Compound G 0.0213 μM fixed + Irinotecan 0.118519 μM
[42] = Compound G 0.0213 μM fixed + Irinotecan 0.177778 μM
[43] = Compound G 0.0213 μM fixed + Irinotecan 0.266667 μM
[44] = Compound G 0.0213 μM fixed + Irinotecan 0.4 μM
[45] = Compound G 0.0213 μM fixed + 5-FU 0.357628 μM
[46] = Compound G 0.0213 μM fixed + 5-FU 0.572205 μM
[47] = Compound G 0.0213 μM fixed + 5-FU 0.915527 μM
[48] = Compound G 0.0213 μM fixed + 5-FU 1.46484 μM
[49] = Compound G 0.0213 μM fixed + 5-FU 2.34375 μM
[50] = Compound G 0.0213 μM fixed + 5-FU 3.75 μM
[51] = Compound G 0.0213 μM fixed + 5-FU 6 μM
[52] = Compound G 0.437382 μM fixed + Pemetrexed 0.082858 μM
[53] = Compound G 0.437382 μM fixed + Pemetrexed 0.140859 μM
[54] = Compound G 0.437382 μM fixed + Pemetrexed 0.239461 μM
[55] = Compound G 0.437382 μM fixed + Pemetrexed 0.407083 μM
[56] = Compound G 0.437382 μM fixed + Pemetrexed 0.692042 μM
[57] = Compound G 0.437382 μM fixed + Pemetrexed 1.17647 μM
[58] = Compound G 0.437382 μM fixed + Pemetrexed 2 μM

Nc1nc2cnc(C(=O)N3CCOC[C@@H]3c3ccc(C(F)(F)F)cc3)cc2c2c1COC2 [Compound G]
Combination Fa (H292 cells [1]; [10]): 0.6656 | Computed CI value (H292 cells [1]; [10]): 0.92 | Combination Fa (H292 cells [1]; [11]): 0.7749 | Computed CI value (H292 cells [1]; [11]): 0.728 | Combination Fa (H292 cells [1]; [12]): 0.8617 | Computed CI value (H292 cells [1]; [12]): 0.658 | Combination Fa (H292 cells [1]; [13]): 0.8929 | Computed CI value (H292 cells [1]; [13]): 0.704 | Combination Fa (H292 cells [1]; [14]): 0.9417 | Computed CI value (H292 cells [1]; [14]): 0.749 | Combination Fa (H292 cells [1]; [15]): 0.957 | Computed CI value (H292 cells [1]; [15]): 0.85 | Combination Fa (H292 cells [1]; [16]): 0.974 | Computed CI value (H292 cells [1]; [16]): 0.94 | Combination Fa (A549 cells [2]; [10]): 0.6362 | Computed CI value (A549 cells [2]; [10]): 0.639 | Combination Fa (A549 cells [2]; [11]): 0.6087 | Computed CI value (A549 cells [2]; [11]): 0.863 | Combination Fa (A549 cells [2]; [12]): 0.7048 | Computed CI value (A549 cells [2]; [12]): 0.786 | Combination Fa (A549 cells [2]; [13]): 0.7817 | Computed CI value (A549 cells [2]; [13]): 0.77 | Combination Fa (A549 cells [2]; [14]): 0.9048 | Computed CI value (A549 cells [2]; [14]): 0.736 | Combination Fa (A549 cells [2]; [15]): 0.95 | Computed CI value (A549 cells [2]; [15]): 0.759 | Combination Fa (A549 cells [2]; [16]): 0.9687 | Computed CI value (A549 cells [2]; [16]): 0.869 | Combination Fa (MIAPACA2T2 cells [3]; [17]): 0.599 | Computed CI value (MIAPACA2T2 cells [3]; [17]): 1.117 | Combination Fa (MIAPACA2T2 cells [3]; [18]): 0.66 | Computed CI value (MIAPACA2T2 cells [3]; [18]): 1.094 | Combination Fa (MIAPACA2T2 cells [3]; [19]): 0.787 | Computed CI value (MIAPACA2T2 cells [3]; [19]): 0.962 | Combination Fa (MIAPACA2T2 cells [3]; [20]): 0.93 | Computed CI value (MIAPACA2T2 cells [3]; [20]): 0.793 | Combination Fa (MIAPACA2T2 cells [3]; [21]): 0.969 | Computed CI value (MIAPACA2T2 cells [3]; [21]): 0.825 | Combination Fa (MIAPACA2T2 cells [3]; [22]): 0.989 | Computed CI value (MIAPACA2T2 cells [3]; [22]): 0.826 | Combination Fa (MIAPACA2T2 cells [3]; [23]): 0.993 | Computed CI value (MIAPACA2T2 cells [3]; [23]): 0.981 | Combination Fa (MIAPACA2T2 cells [4]; [24]): 0.711 | Computed CI value (MIAPACA2T2 cells [4]; [24]): 0.599 | Combination Fa (MIAPACA2T2 cells [4]; [25]): 0.766 | Computed CI value (MIAPACA2T2 cells [4]; [25]): 0.521 | Combination Fa (MIAPACA2T2 cells [4]; [26]): 0.832 | Computed CI value (MIAPACA2T2 cells [4]; [26]): 0.437 | Combination Fa (MIAPACA2T2 cells [4]; [27]): 0.881 | Computed CI value (MIAPACA2T2 cells [4]; [27]): 0.402 | Combination Fa (MIAPACA2T2 cells [4]; [28]): 0.939 | Computed CI value (MIAPACA2T2 cells [4]; [28]): 0.322 | Combination Fa (MIAPACA2T2 cells [4]; [29]): 0.963 | Computed CI value (MIAPACA2T2 cells [4]; [29]): 0.313 | Combination Fa (MIAPACA2T2 cells [4]; [30]): 0.966 | Computed CI value (MIAPACA2T2 cells [4]; [30]): 0.396 | Combination Fa (MIAPACA2T2 cells [5]; [31]): 0.718 | Computed CI value (MIAPACA2T2 cells [5]; [31]): 0.691 | Combination Fa (MIAPACA2T2 cells [5]; [32]): 0.7359 | Computed CI value (MIAPACA2T2 cells [5]; [32]): 0.751 | Combination Fa (MIAPACA2T2 cells [5]; [33]): 0.8028 | Computed CI value (MIAPACA2T2 cells [5]; [33]): 0.72 | Combination Fa (MIAPACA2T2 cells [5]; [34]): 0.8794 | Computed CI value (MIAPACA2T2 cells [5]; [34]): 0.677 | Combination Fa (MIAPACA2T2 cells [5]; [35]): 0.9677 | Computed CI value (MIAPACA2T2 cells [5]; [35]): 0.655 | Combination Fa (MIAPACA2T2 cells [5]; [36]): 0.9854 | Computed CI value (MIAPACA2T2 cells [5]; [36]): 0.649 | Combination Fa (MIAPACA2T2 cells [5]; [37]): 0.9132 | Computed CI value (MIAPACA2T2 cells [5]; [37]): 0.729 | Combination Fa (PSN1 cells [6]; [38]): 0.4007 | Computed CI value (PSN1 cells [6]; [38]): 0.981 | Combination Fa (PSN1 cells [6]; [39]): 0.3585 | Computed CI value (PSN1 cells [6]; [39]): 1.28 | Combination Fa (PSN1 cells [6]; [40]): 0.4649 | Computed CI value (PSN1 cells [6]; [40]): 1.168 | Combination Fa (PSN1 cells [6]; [41]): 0.6137 | Computed CI value (PSN1 cells [6]; [41]): 1.087 | Combination Fa (PSN1 cells [6]; [42]): 0.8505 | Computed CI value (PSN1 cells [6]; [42]): 0.852 | Combination Fa (PSN1 cells [6]; [43]): 0.9402 | Computed CI value (PSN1 cells [6]; [43]): 0.836 | Combination Fa (PSN1 cells [6]; [44]): 0.9731 | Computed CI value (PSN1 cells [6]; [44]): 0.916 | anti-tumor activity of combination with paclitaxel (H292 NSCLC xenografts): significant anti-tumor activity versus either single agent alone | Combination Fa (PSN1 cells [7]; [45]): 0.3 | Computed CI value (PSN1 cells [7]; [45]): 1.422 | Combination Fa (PSN1 cells [7]; [46]): 0.416 | Computed CI value (PSN1 cells [7]; [46]): 1.404 | Combination Fa (PSN1 cells [7]; [47]): 0.669 | Computed CI value (PSN1 cells [7]; [47]): 1.055 | Combination Fa (PSN1 cells [7]; [48]): 0.74 | Computed CI value (PSN1 cells [7]; [48]): 1.282 | Combination Fa (PSN1 cells [7]; [49]): 0.789 | Computed CI value (PSN1 cells [7]; [49]): 1.668 | Combination Fa (PSN1 cells [7]; [50]): 0.836 | Computed CI value (PSN1 cells [7]; [50]): 2.158 | Combination Fa (PSN1 cells [7]; [51]): 0.869 | Computed CI value (PSN1 cells [7]; [51]): 2.903 | Combination Fa (H292 cells [8]; [52]): 0.602 | Computed CI value (H292 cells [8]; [52]): 1.359 | Combination Fa (H292 cells [8]; [53]): 0.63 | Computed CI value (H292 cells [8]; [53]): 1.184 | Combination Fa (H292 cells [8]; [54]): 0.678 | Computed CI value (H292 cells [8]; [54]): 0.914 | Combination Fa (H292 cells [8]; [55]): 0.741 | Computed CI value (H292 cells [8]; [55]): 0.64 | Combination Fa (H292 cells [8]; [56]): 0.827 | Computed CI value (H292 cells [8]; [56]): 0.342 | Combination Fa (H292 cells [8]; [57]): 0.885 | Computed CI value (H292 cells [8]; [57]): 0.216 | Combination Fa (H292 cells [8]; [58]): 0.904 | Computed CI value (H292 cells [8]; [58]): 0.235 | Combination Fa (A549 cells [9]; [52]): 0.669 | Computed CI value (A549 cells [9]; [52]): 0.846 | Combination Fa (A549 cells [9]; [53]): 0.651 | Computed CI value (A549 cells [9]; [53]): 1.064 | Combination Fa (A549 cells [9]; [54]): 0.693 | Computed CI value (A549 cells [9]; [54]): 0.882 | Combination Fa (A549 cells [9]; [55]): 0.712 | Computed CI value (A549 cells [9]; [55]): 0.922 | Combination Fa (A549 cells [9]; [56]): 0.834 | Computed CI value (A549 cells [9]; [56]): 0.363 | Combination Fa (A549 cells [9]; [57]): 0.918 | Computed CI value (A549 cells [9]; [57]): 0.132 | Combination Fa (A549 cells [9]; [58]): 0.948 | Computed CI value (A549 cells [9]; [58]): 0.087

From US20250228861A1, “Cancer Treatments Using MTA-Cooperative PRMT5 Inhibitors” (AMGEN INC., priority 2022, published 2025)
